{"source": "patent US5215889A", "about": "“Catalytic and reactive polypeptides and methods for their preparation and use” (The Regents of the University of California, priority 1989, dated 1993)", "assay_in_all_cases": "Hydrolysis of DNP coumarin esters 1-3 by Fv", "type_in_all_cases": "biochemical, murine", "key": {"[1]": {"tested_on": "MOPC315 Fv variant Fv(Y34FL), Tyr 34L to Phe", "conditions": "pH 6.8", "procedure": "(§1) FIG. 22 is a Lineweaver-Burke plot of initial rate data obtained for the hydrolysis of 1 as described in Example 6 of the Experimental section herein. Four μl of a 100-fold concentrated solution of substrate 1 in DMSO was added to the 400 μl of Fv (115 nM) in buffer A while monitoring 7-hydroxycoumarin fluorescence at 25° C. (excitation:355nm; emission: 457 nm). A standard of 7-hydroxycoumarin was added at the completion of each assay to assess quenching of coumarin fluorescence by DNP at high substrate concentrations. The buffer background rate was subtracted from the initial rates. Each point represents the average velocity of at least duplicate experiments. Factor X, Factor Xa, or Russell's viper venom had no hydrolytic activity towards 1.\n(§2) The ability of wild type and mutant Fvs to hydrolyze esters 1-3 was assayed by measuring the rate of coumarin release fluorimetrically at pH 6.8 (Pollack et al. (1988) supra; Pollack (1989) supra). […] Under these conditions, Fv(Y34HL) turns over at least 11 times and still retains 44% of its activity. The loss of activity is likely due to the accumulation of the inhibitory reaction product 8. […] Ester 2 was a poor substrate (kcat (2)=0.015 min^-1); and the hydrolysis of 3 was not accelerated (kcat (3)<0.005 min^-1). […] The initial rate of hydrolysis of 1 by Fv(Y34HL) at pH 6.8 is approximately 45-fold faster than the reaction with either […] (Table 2). At pH 8.7, the reactivity of Fv(Y34HL) and Fv(315) both increase, but differentially (v[Fv(Y34HL ]/v[Fv(315)]=3.3, at 10 μM 1). Under these conditions Fv(Y34HL) catalytically hydrolyzes 1 while Fv(315) reacts stoichiometrically. The increased reactivity of Fv(315) at higher pH may be due to deprotonation of the tyrosine hydroxyl and subsequent transesterification to form a relatively stable phenol ester."}, "[2]": {"target": "T1, MOPC315 Fv variant Fv(Y34HL), Tyr 34L to His (Mus musculus, UniProt P01729+P01822, Y53H)", "T1 construct": "Antibody-derived VH was prepared by denaturing ion exchange chromatography of authentic MOPC315 Fv, obtained from pepsin digestion of purified IgA; lambda cII fusion with Factor Xa site (IleGluGlyArg) (N, cleaved yes); made in house; host or cells: VL: E. coli MZ1 (cII fusion, inclusion bodies); VH: pepsin-cleaved MOPC315 IgA from mouse ascites", "T1 sequence (P01729 with tags, fused parts or gaps Y53H)": "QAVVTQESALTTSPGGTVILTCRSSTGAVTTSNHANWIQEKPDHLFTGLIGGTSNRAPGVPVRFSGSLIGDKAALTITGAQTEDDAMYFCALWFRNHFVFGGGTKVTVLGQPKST", "T1 sequence (P01822 19-137)": "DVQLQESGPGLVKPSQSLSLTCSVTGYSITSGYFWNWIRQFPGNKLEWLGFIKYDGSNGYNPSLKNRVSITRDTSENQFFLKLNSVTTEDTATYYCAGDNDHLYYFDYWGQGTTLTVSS", "conditions": "pH 6.8; SE (n = 3)", "procedure": "as §1, §2"}, "[3]": {"target": "T2, MOPC315 Fv, wild type, Fv(315) (Mus musculus, UniProt P01729+P01822)", "T2 construct": "The Fv fragment (26 kD) is a heterodimer consisting of two peptides, VH (14 kD) and VL (12 kD); made in house; host or cells: MOPC315 myeloma ascites (Balb/c mice), IgA cleaved with pepsin", "T2 sequence (P01822 19-137)": "as above", "T2 sequence (P01729 20-129)": "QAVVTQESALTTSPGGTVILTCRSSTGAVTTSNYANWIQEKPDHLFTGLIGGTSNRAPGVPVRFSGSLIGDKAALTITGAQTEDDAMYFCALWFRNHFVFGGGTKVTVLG", "conditions": "pH 6.8", "procedure": "as §1, §2"}}}
{"compound": "O=C(CCCCNc1ccc([N+](=O)[O-])cc1[N+](=O)[O-])Oc1ccc2ccc(=O)oc2c1", "note": "[compound 1, 7-hydroxycoumarin ester of 5-(2,4-dinitrophenyl)-aminopentanoic acid]", "values": [{"measurement": "kcat (Table 2, Fv(Y34FL))", "setting": "[1]", "value": 0.004, "unit": "min"}, {"measurement": "kcat (Table 2, Fv(Y34HL))", "setting": "[2]", "value": "0.18 ± .03 min"}, {"measurement": "kcat (Table 2, Fv(315))", "setting": "[3]", "value": 0.004, "unit": "min"}]}
